# Assay results reported in patent US4550186A, “Binuclear copper (II) carboxylates formed from amine-carboxyboranes” (Duke University, priority 1983, dated 1985).
# Molecular target: T1, transfer ribonucleic acid polymerase (Mus musculus, UniProt B2RXC6+P59470)
# T1 sequence (B2RXC6 1-1390): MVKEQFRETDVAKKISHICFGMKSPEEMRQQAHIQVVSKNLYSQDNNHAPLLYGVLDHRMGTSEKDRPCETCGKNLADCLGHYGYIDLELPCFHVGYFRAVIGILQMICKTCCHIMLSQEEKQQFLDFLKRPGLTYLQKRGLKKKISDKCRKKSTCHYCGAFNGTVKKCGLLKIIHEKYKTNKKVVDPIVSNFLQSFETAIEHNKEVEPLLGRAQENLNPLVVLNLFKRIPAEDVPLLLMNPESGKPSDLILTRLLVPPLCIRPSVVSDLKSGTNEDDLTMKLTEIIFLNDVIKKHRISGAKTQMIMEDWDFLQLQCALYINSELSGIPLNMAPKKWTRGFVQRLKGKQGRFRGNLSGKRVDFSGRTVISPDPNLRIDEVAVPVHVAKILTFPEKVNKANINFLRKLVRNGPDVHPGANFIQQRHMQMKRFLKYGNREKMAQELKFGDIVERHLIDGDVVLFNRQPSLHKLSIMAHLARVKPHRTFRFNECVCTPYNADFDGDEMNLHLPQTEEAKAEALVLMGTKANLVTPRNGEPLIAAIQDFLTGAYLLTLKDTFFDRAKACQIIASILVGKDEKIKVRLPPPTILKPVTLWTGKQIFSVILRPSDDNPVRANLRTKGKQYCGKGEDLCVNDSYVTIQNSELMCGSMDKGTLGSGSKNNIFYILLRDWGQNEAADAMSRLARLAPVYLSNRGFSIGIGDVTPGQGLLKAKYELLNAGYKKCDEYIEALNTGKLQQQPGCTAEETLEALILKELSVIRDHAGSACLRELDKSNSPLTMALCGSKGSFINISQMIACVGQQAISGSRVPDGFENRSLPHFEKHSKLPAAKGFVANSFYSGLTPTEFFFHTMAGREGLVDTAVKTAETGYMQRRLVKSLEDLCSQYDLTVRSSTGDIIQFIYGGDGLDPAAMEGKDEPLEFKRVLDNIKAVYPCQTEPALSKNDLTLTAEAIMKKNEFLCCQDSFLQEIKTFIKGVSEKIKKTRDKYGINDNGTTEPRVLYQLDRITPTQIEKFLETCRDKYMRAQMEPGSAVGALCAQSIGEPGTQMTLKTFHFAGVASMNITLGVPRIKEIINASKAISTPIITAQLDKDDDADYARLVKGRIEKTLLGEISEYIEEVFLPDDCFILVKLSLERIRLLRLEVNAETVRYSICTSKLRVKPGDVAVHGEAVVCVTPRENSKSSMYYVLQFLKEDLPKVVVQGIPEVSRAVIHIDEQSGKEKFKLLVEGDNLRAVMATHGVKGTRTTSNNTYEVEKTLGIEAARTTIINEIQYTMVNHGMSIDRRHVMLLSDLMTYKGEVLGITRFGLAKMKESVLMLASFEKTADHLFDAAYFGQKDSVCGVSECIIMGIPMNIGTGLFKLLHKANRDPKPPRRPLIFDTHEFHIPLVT
# T1 sequence (P59470 1-1133): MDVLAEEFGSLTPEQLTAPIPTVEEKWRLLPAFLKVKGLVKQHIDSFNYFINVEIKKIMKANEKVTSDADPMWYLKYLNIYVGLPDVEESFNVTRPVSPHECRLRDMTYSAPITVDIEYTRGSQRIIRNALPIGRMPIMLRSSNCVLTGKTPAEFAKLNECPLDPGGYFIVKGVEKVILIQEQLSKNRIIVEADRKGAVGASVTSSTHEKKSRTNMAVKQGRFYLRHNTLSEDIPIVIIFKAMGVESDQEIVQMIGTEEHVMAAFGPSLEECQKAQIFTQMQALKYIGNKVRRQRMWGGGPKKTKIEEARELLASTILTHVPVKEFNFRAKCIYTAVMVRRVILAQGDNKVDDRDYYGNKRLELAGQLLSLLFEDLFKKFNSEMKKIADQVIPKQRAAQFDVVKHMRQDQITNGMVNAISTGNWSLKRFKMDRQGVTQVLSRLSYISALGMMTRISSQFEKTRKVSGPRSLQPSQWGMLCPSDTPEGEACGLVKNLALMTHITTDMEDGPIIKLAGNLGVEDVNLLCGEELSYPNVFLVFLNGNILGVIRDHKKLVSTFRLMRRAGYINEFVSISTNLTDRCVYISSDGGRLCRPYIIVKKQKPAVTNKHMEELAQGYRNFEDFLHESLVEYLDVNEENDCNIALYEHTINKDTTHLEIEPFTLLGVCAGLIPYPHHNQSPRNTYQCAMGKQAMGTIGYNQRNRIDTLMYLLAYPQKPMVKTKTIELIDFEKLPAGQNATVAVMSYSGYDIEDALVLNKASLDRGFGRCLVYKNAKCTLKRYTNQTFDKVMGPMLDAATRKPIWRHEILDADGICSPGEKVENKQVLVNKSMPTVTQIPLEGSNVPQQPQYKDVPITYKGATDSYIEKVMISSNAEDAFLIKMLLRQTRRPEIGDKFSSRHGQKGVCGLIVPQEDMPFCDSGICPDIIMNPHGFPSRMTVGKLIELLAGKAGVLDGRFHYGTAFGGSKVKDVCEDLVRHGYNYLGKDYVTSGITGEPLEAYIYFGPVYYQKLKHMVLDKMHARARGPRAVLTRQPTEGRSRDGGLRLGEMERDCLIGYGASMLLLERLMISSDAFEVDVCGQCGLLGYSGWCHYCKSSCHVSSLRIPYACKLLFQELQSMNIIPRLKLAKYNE
# Experiment: In vivo transfer ribonucleic acid polymerase activity
# Experimental: CF1 male mice (~30 g) were implanted with 2×10^6 Ehrlich ascites tumor cells, intraperitoneally on Day 0. Compound I was suspended by homogenation in 0.05% polysorbate.80-water and administered intraperitoneally at 10 and 20 mg/kg for 9 days to determine its effectiveness for inhibition of tumor growth. Mice were sacrificed on Day 10, and the ascites fluid was collected from the peritoneal cavity. The volume and ascrit (packed cell volume) were determined for each animal and the percent inhibition of tumor growth was calculated. For the metabolic studies, mice were treated on Days 8 and 9 with 10 mg/kg of Compound I, intraperitoneally. The animal was sacrificed on Day 10 and the ascites fluid harvested. The in vitro metabolic studies were performed at […] final concentration of Compound I.
# In vitro and in vivo nuclear deoxyribonucleic acid polymerase activity was determined on isolated Ehrlich ascites cell nuclei. The incubation was that described by Sawada et al [Can. Res., 34, 3341 (1974)] except that [methyl-^3 H] deoxythymidine triphosphate (82.4 Ci/mmol) was used. The acid insoluble nucleic acid was collected on GF/F filters and counted. Nuclear ribonucleic acid polymerase activities were determined on enzymes isolated from nuclei. […] The acid insoluble ribonucleic acid was collected on nitrocellulose filters and counted.
substance,measurement,setting,value
{Cu[(CH3)3 N.BH2 CO2 ]2.(CH3)3 N.BH2 COOH} [Compound I],transfer ribonucleic acid polymerase activity suppressed,,37%
same,Transfer ribonucleic acid polymerase activity,10 mg/kg/day I.P. on Days 8 and 9,63 ± 7 % Control
